Test results as given in US12139815B2, “Methods for rapid detection of immunogenic epitopes in biothreat agents and emerging pathogens for peptide vaccines and therapeutics” (priority 2021, dated 2024).

System: antibodies from sera of mice immunized with Ft-ΔclpB
Type: binding, mouse

Sequence | enrichment in Experiment samples relative to Control samples (in words)
DNTTIIDGAGEK [SEQ ID NO: 7] | enriched
EGVITVEEGK (listed as Francisella tularensis) [SEQ ID NO: 8] | enriched
